Results from patent US9556205B2, “Fungicide N-[(trisubstitutedsilyl)methyl]-carboxamide derivatives” (BAYER INTELLECTUAL PROPERTY GMBH, priority 2010, dated 2017).

Experiments:
Puccinia recondita [1] = assay: In vivo test on Puccinia recondita (wheat brown rust), Example I; settings: wheat (Scipion variety), 500 ppm of active ingredient, grading 10 days after contamination
[2] = log P by HPLC on reversed-phase column (C18), EEC Directive 79/831 Annex V.A8; type: physicochemical; settings: 40° C., 0.1% aqueous formic acid and acetonitrile, linear gradient 10% to 90% acetonitrile
Protocol: In table 1, the log P values were determined in accordance with EEC Directive 79/831 Annex V.A8 by HPLC (High Performance Liquid Chromatography) on a reversed-phase column (C18), using the method described below:
Temperature: 40° C.; Mobile phases: 0.1% aqueous formic acid and acetonitrile; linear gradient from 10% acetonitrile to 90% acetonitrile.
Calibration was carried out using unbranched alkan-2-ones (comprising 3 to 16 carbon atoms) with known log P values (determination of the log P values by the retention times using linear interpolation between two successive alkanones). lambda-max-values were determined using UV-spectra from 200 nm to 400 nm and the peak values of the chromatographic signals.

Pyrenophora teres = assay: In vivo preventive test on Pyrenophora teres (barley), Example F; settings: for Efficacy: 500 ppm of active ingredient, evaluated 7-9 days after inoculation; for disease control: 500 ppm, comparison with prior-art compound
Protocol: (§1) Solvent: 49 parts by weight of N,N-dimethylformamide Emulsifier: 1 part by weight of alkylaryl polyglycol ether To produce a suitable preparation of active compound, 1 part by weight of active compound is mixed with the stated amounts of solvent and emulsifier, and the concentrate is diluted with water to the desired concentration. To test for preventive activity, young plants are sprayed with the preparation of active compound at the stated rate of application. One day after this treatment, the plants are inoculated with an aqueous spore suspension of Pyrenophora teres. […] Then the plants are placed in a greenhouse at a temperature of approximately 20° C. and a relative atmospheric humidity of approximately 80%.

Puccinia recondita [3] = assay: In vivo preventive test on Puccinia recondita (wheat), Example H; settings: 500 ppm, evaluated 7-9 days after inoculation
Protocol: as §1, with “N,N-dimethylacetamide” for “N,N-dimethylformamide”, “Puccinia recondita.” for “Pyrenophora teres.”

Alternaria solani = assay: In vivo preventive test on Alternaria solani (tomato); settings: for Efficacy: 500 ppm of active ingredient, evaluated 7 days after inoculation; for disease control: 500 ppm, comparison with prior-art compound
Protocol: as §1, with “Alkylarylpolyglycolether” for “alkylaryl polyglycol ether”, “Alternaria solani.” for “Pyrenophora teres.”, “an incubation cabinet” for “a greenhouse”, “at” for “at a temperature of”, “96%.” for “approximately 80%.”

Septoria tritici = assay: In vivo preventive test on Septoria tritici (wheat); settings: 500 ppm of active ingredient, evaluated 21 days after inoculation
Protocol: Solvent: 49 parts by weight of N,N-dimethylacetamide Emulsifier: 1 part by weight of alkylaryl polyglycol ether To produce a suitable preparation of active compound, 1 part by weight of active compound or active compound combination is mixed with the stated amounts of solvent and emulsifier, and the concentrate is diluted with water to the desired concentration. To test for preventive activity, young plants are sprayed with the preparation of active compound or active compound combination at the stated rate of application. After the spray coating has dried on, the plants are sprayed with a spore suspension of Septoria tritici. […] The plants are placed in a greenhouse at a temperature of approximately 15° C. and a relative atmospheric humidity of approximately 80%.

Venturia inaequalis = assay: In vivo preventive test on Venturia inaequalis (apple scab); settings: 100 ppm of active ingredient, evaluated 10 days after inoculation
Protocol: Solvent: 24.5 parts by weight of acetone • 24.5 parts by weight of N,N-dimethylacetamide Emulsifier: 1 part by weight of alkylaryl polyglycol ether To produce a suitable preparation of active compound, 1 part by weight of active compound is mixed with the stated amounts of solvent and emulsifier, and the concentrate is diluted with water to the desired concentration. To test for protective activity, young plants are sprayed with the preparation of active compound at the stated rate of application. […] The plants are then placed in a greenhouse at approximately 21° C. and a relative atmospheric humidity of approximately 90%.

[4] = tested on: Aflatoxins production by Aspergillus parasiticus; type: cell-based
Phakopsora pachyrhizi = assay: In vivo protective test on Phakopsora pachyrhizi (soybean rust); settings: 250 ppm of active ingredient, evaluated 11 days after inoculation
Protocol: Solvent: 28.5 parts by weight of acetone
Emulsifier: 1.5 parts by weight of polyoxyethylene alkyl phenyl ether
(§2) To produce a suitable preparation of active compound, 1 part by weight of active compound is mixed with the stated amounts of solvent and emulsifier, and the concentrate is diluted with water to the desired concentration.
To test for protective activity, young plants are sprayed with the preparation of active compound at the stated rate of application. One day after spraying, the plants are inoculated with an aqueous spore suspension of the causal agent of soybean rust (Phakopsora pachyrhizi). The plants are then placed in a greenhouse at approximately 20° C. and a relative atmospheric humidity of approximately 80%.
The test is evaluated 11 days after the inoculation. 0% means an efficacy which corresponds to that of the control, while an efficacy of 100% means that no disease is observed.
Under these conditions, good (at least 80%) to total protection is observed at a dose of 250 ppm of active ingredient with the following compounds from table G: […]

Leptosphaeria nodorum = assay: In vivo preventive test on Leptosphaeria nodorum (wheat); settings: 500 ppm of active ingredient, evaluated 8 days after inoculation
Protocol: Solvent: 49 parts by weight of N,N-dimethylacetamide Emulsifier: 1 part by weight of alkylaryl polyglycol ether To produce a suitable preparation of active compound, 1 part by weight of active compound or the compound combination is mixed with the stated amounts of solvent and emulsifier, and the concentrate is diluted with water to the desired concentration. To test for protective activity, young plants are sprayed with a preparation of active compound or active compound combination at the stated rate of application. After the spray coating has dried on, the plants are sprayed with a spore suspension of Leptosphaeria nodorum. […] The plants are placed in a greenhouse at a temperature of approximately 15° C. and a relative atmospheric humidity of approximately 80%.

Aspergillus parasiticus = type: cell-based; settings: 7 days at 20° C., OD620nm
Botrytis cinerea = assay: In vivo preventive test on Botrytis cinerea (beans); settings: 500 ppm of active ingredient, lesion size 2 days after inoculation
Protocol: Solvent: 24.5 parts by weight of acetone
• 24.5 parts by weight of N,N-dimethylacetamide Emulsifier: 1 part by weight of alkylaryl polyglycol ether
as §2
To test for protective activity, young plants are sprayed with the preparation of active compound. After the spray coating has dried on, 2 small pieces of agar covered with growth of Botrytis cinerea are placed on each leaf. The inoculated plants are placed in a darkened chamber at 20° C. and a relative atmospheric humidity of 100%.
2 days after the inoculation, the size of the lesions on the leaves is evaluated. 0% means an efficacy which corresponds to that of the control, while an efficacy of 100% means that no disease is observed. Under these conditions, excellent (at least 95%) to total protection is observed at a dose of 500 ppm of active ingredient with the following compounds from table C: […]

SMILES | protection (Puccinia recondita [1]) | logP [2] | Efficacy (Pyrenophora teres) [%] | disease control (Pyrenophora teres) [%] | disease control (Puccinia recondita [3]) [%] | Efficacy (Alternaria solani) [%] | disease control (Alternaria solani) [%] | Efficacy (Septoria tritici) [%] | Efficacy (Venturia inaequalis) [%] | % Inhibition of Aflatoxin at 50 μM [4] [%] | Efficacy (Phakopsora pachyrhizi) [%] | Efficacy (Leptosphaeria nodorum) [%] | % Inhibition of fungal growth at 50 μM (Aspergillus parasiticus) [%] | Efficacy (Botrytis cinerea) [%]
CCc1nn(C)c(F)c1C(=O)N(C[Si](C)(C)c1ccccc1)C1CC1 [Example 7] | at least 70% | 3.64 |  |  |  |  |  |  |  |  |  |  |  | 
Cn1nc(C(F)F)c(C(=O)N(C[Si](C)(C)c2ccccc2)C2CCCCC2)c1F [Example 11] |  | 4.86 | 70 | 70 | 80 | 90 | 90 |  |  |  |  |  |  | 
Cc1cc(C(=O)N(C[Si](C)(C)c2ccccc2)C2CCCCC2)c(C)o1 [Example 12] |  | 5.62 | 70 | 70 | 40 | 80 | 80 |  |  |  |  |  |  | 
Cn1nc(C(F)F)c(C(=O)N(C[Si](C)(C)c2ccccc2Cl)C2CC2)c1F [Example 18] |  | 4.13 | 100 |  |  | 100 |  | 100 | 99 | 100 | 80 | 100 | 100 | 
Cn1nc(C(F)F)c(C(=O)N(C[Si](C)(C)c2cccc(Cl)c2)C2CC2)c1F [Example 31] |  | 4.18 | 100 |  |  | 100 |  | 100 | 100 | 100 | 100 | 100 | 100 | 95
Cn1nc(C(F)F)c(C(=O)N(C[Si](C)(C)c2ccc(Cl)cc2Cl)C2CC2)c1F [Example 38] |  | 4.78 | 100 |  |  | 94 |  | 100 | 100 | 100 | 85 | 100 | 100 | 95
Cn1nc(C(F)F)c(C(=O)N(C[Si](C)(C)c2cc(Cl)cc(Cl)c2)C2CC2)c1F [Example 52] |  | 4.78 | 100 |  |  | 100 |  | 100 | 100 | 100 | 99 | 100 | 100 | 100
C[Si](C)(CN(C(=O)c1ccco1)C1CCCCC1)c1ccccc1 [N-cyclohexyl-N-{[dimethyl(phenyl)silyl]methyl}-2-furamide, reference compound] |  |  |  | 0 | 10 |  | 0 |  |  |  |  |  |  | 
